Test system: Caco-2 cells
Assay: In situ global proteomics profiling of Caco-2 cells (LC-MS/MS, LFQ)
Type: cell-based, human
Conditions: LFQ
Protocol: Figure 7 Identification of PPARγ as target of deoxyelephantopin and screening of DEP derivatives as PPARγ antagonists. (a) Quantification of endogenous PPARγ enriched from Caco-2 cells using 10 μM 24c following in situ treatment with DEP (20 μM) or DMSO (normalized LFQ values±s.d. are shown; n=6). (b) Changes in expression levels of five PPARγ-dependent proteins following 24 h treatment of Caco-2 cells with DMSO, rosiglitazone (10 μM), T0070907 (50 μM) or DEP (20 μM; LFQ ratios±s.d. are shown; n=3). **P<0.005 and ***P<0.0005 by two-sided Student's t-test. (c) Gel-based competitive screening of DEP and analogues as PPARγ antagonists against recombinant human enzyme (top). hPPARγ was treated with each compound (20 μM) for 1 h followed by treatment with 24c-Cy3 (10 μM) as probe. Quantification of fluorescence intensity in the competitive screening for PPARγ antagonists (bottom; values±s.d. are shown; n=3).
Caco-2 cells were treated with DMSO, PPARγ agonist rosiglitazone, antagonist T0070907 or DEP for 24 h, the cells were collected and the proteomes were comparatively analysed by LC–MS/MS. […] Furthermore, the list of 43 dysregulated proteins was analysed and classified using the GOrilla pathway analysis tool (Supplementary Fig. 15). […]
In situ global proteomics profiling using LC-MS/MS. Caco- ’ cells/mL) in a 6-well plate, allowed to grow to confluence and to differentiate for 28 days. The wells were washed one time with PBS and treated with either DMSO, 10 µM rosiglitazone, 50 µM T0070907 or 20 µM DEP for 24 hours. Cells were washed two times with PBS and lysates were prepared. Samples (30 µg) were denatured with 6 M urea in 50 mM NH4HCO3, reduced […]
dark. Samples were diluted to 2 M urea with 50 mM NH4HCO3, and digested with trypsin ([…] for 12 hours at 37 °C. Samples were acidified to a final concentration of 5% acetic acid, desalted over a self-packed C18 spin column and […]
dried. […]
LC-MS/MS analysis. Peptides were resuspended in water with 0.1% formic acid (FA) and analyzed using Proxeon EASY-nLC 1000 nano-UHPLC coupled to QExactive Plus Quadrupole-Orbitrap mass spectrometer (Thermo Scientific). The chromatography column […]
H2O (Buffer A) and 0.1% FA in MeCN (Buffer B). Peptides were eluted into the mass spectrometer at a flow rate of 300 nL/min. over a 240 min. linear gradient (3-35% Buffer B) at 50 °C. Data was acquired in data-dependent mode (top- N = ’ […]
and isotope exclusion was enabled.
MaxQuant analysis. The MS data was analyzed with MaxQuant (V1.5.2.8) and searched against the human proteome (Uniprot, 89,649 entries) and a common list of contaminants (included in MaxQuant). The first peptide search tolerance was set to 20 ppm, 10 ppm was used for the main peptide search and fragment mass tolerance was set to 0.02 Da. The false discovery rate for peptides, proteins and sites identification was set to 1%. The minimum peptide length was set to 6 amino acids and peptide re-quantification, label-free quantification (MaxLFQ) and “ ” were enabled. The minimal number of peptides per protein was set to two. Oxidized methionines and N-terminal acetylation were searched as variable modifications and carbamidomethylation of cysteines was searched as a fixed modification. For SILAC experiments 13C6 L-lysine and 13C6 15N4 L-arginine were set as heavy isotope labels and 12C6 L-lysine and 12C6 14N4 L-arginine as light isotope labels.
19 d k g h ARγ. 19a was covalently docked to the crystal structure of human γ ZU 190 using the GOLD suite (V5.3, CCDC). The default GOLD fitness function was used to determine the best binding configuration. The distance for hydrogen bonding was set to 3 Å.
IAA competition of 23c, 24c and DEP h ARγ. γ
(500 ng in 9 µL PBS) was treated with either 100 µM DEP, 23c, 24c or DMSO (1 µL of 10x stock in DMSO) for one hour. Samples were denatured with 6 M urea in 50 mM NH4HCO3, […]
in the dark. Samples were diluted to 2 M urea with 50 mM NH4HCO3, and digested with trypsin […]

CN(CCOc1ccc(CC2SC(=O)NC2=O)cc1)c1ccccn1 (centres unmarked) [Rosiglitazone, rosiglitazone]
Log2 10 µM Rosiglitazone/DMSO (protein ALDH3B1, 24 h): -0.32 | Log2 10 µM Rosiglitazone/DMSO (protein ARHGAP17, 24 h): 0.39 | Log2 10 µM Rosiglitazone/DMSO (protein ARMCX3, 24 h): -0.36 | Log2 10 µM Rosiglitazone/DMSO (protein COL4A3BP, 24 h): -0.06 | Log2 10 µM Rosiglitazone/DMSO (protein CROT, 24 h): 0.034 | Log2 10 µM Rosiglitazone/DMSO (protein CTBP2, 24 h): 0.36 | Log2 10 µM Rosiglitazone/DMSO (protein DDX21, 24 h): 0.15 | Log2 10 µM Rosiglitazone/DMSO (protein FNTA, 24 h): -0.12 | Log2 10 µM Rosiglitazone/DMSO (protein GID8, 24 h): 0.46 | Log2 10 µM Rosiglitazone/DMSO (protein GIPC2, 24 h): 0.0144 | Log2 10 µM Rosiglitazone/DMSO (protein GIT2, 24 h): -0.38 | Log2 10 µM Rosiglitazone/DMSO (protein GSTA1, 24 h): 0.21 | Log2 10 µM Rosiglitazone/DMSO (protein GSTA2, 24 h): 0.20 | Log2 10 µM Rosiglitazone/DMSO (protein GSTM3, 24 h): 0.30 | Log2 10 µM Rosiglitazone/DMSO (protein HIGD1A, 24 h): 0.43 | Log2 10 µM Rosiglitazone/DMSO (protein IREB2, 24 h): 0.26 | Log2 10 µM Rosiglitazone/DMSO (protein ITGB4, 24 h): 0.08 | Log2 10 µM Rosiglitazone/DMSO (protein LDHD, 24 h): -0.20 | Log2 10 µM Rosiglitazone/DMSO (protein LDLR, 24 h): 0.49 | Log2 10 µM Rosiglitazone/DMSO (protein LIPA, 24 h): 0.034 | Log2 10 µM Rosiglitazone/DMSO (protein MARCH5, 24 h): 0.40 | Log2 10 µM Rosiglitazone/DMSO (protein MGMT, 24 h): -0.17 | Log2 10 µM Rosiglitazone/DMSO (protein MYO15B, 24 h): 0.08 | Log2 10 µM Rosiglitazone/DMSO (protein NOP9, 24 h): 0.07 | Log2 10 µM Rosiglitazone/DMSO (protein OAS1, 24 h): 0.0144 | Log2 10 µM Rosiglitazone/DMSO (protein OGDHL, 24 h): 0.10 | Log2 10 µM Rosiglitazone/DMSO (protein PANK4, 24 h): -0.34 | Log2 10 µM Rosiglitazone/DMSO (protein PHPT1, 24 h): -0.36 | Log2 10 µM Rosiglitazone/DMSO (protein PSIP1, 24 h): 0.49 | Log2 10 µM Rosiglitazone/DMSO (protein RAB5B, 24 h): 0.49 | Log2 10 µM Rosiglitazone/DMSO (protein RBP4, 24 h): 0.20 | Log2 10 µM Rosiglitazone/DMSO (protein RRS1, 24 h): 0.50 | Log2 10 µM Rosiglitazone/DMSO (protein SAMHD1, 24 h): -0.43 | Log2 10 µM Rosiglitazone/DMSO (protein SCAMP3, 24 h): 0.45 | Log2 10 µM Rosiglitazone/DMSO (protein SETDB1, 24 h): 0.08 | Log2 10 µM Rosiglitazone/DMSO (protein SLC26A3, 24 h): 0.10 | Log2 10 µM Rosiglitazone/DMSO (protein SLC39A14, 24 h): -0.49 | Log2 10 µM Rosiglitazone/DMSO (protein STK4, 24 h): 0.36 | Log2 10 µM Rosiglitazone/DMSO (protein SURF6, 24 h): 0.26 | Log2 10 µM Rosiglitazone/DMSO (protein TGOLN2, 24 h): 0.28 | Log2 10 µM Rosiglitazone/DMSO (protein TPD52L1, 24 h): -0.45 | Log2 10 µM Rosiglitazone/DMSO (protein TTR, 24 h): 0.46 | Log2 10 µM Rosiglitazone/DMSO (protein VPS52, 24 h): 0.42

O=C(Nc1ccncc1)c1cc([N+](=O)[O-])ccc1Cl [T0070907]
Log2 50 µM T0070907/DMSO (protein ALDH3B1, 24 h): -0.79 | Log2 50 µM T0070907/DMSO (protein ARHGAP17, 24 h): -0.81 | Log2 50 µM T0070907/DMSO (protein ARMCX3, 24 h): -0.71 | Log2 50 µM T0070907/DMSO (protein COL4A3BP, 24 h): -0.76 | Log2 50 µM T0070907/DMSO (protein CROT, 24 h): -0.85 | Log2 50 µM T0070907/DMSO (protein CTBP2, 24 h): 0.83 | Log2 50 µM T0070907/DMSO (protein DDX21, 24 h): 0.92 | Log2 50 µM T0070907/DMSO (protein FNTA, 24 h): -0.97 | Log2 50 µM T0070907/DMSO (protein GID8, 24 h): 0.60 | Log2 50 µM T0070907/DMSO (protein GIPC2, 24 h): -0.69 | Log2 50 µM T0070907/DMSO (protein GIT2, 24 h): -0.89 | Log2 50 µM T0070907/DMSO (protein GSTA1, 24 h): -0.76 | Log2 50 µM T0070907/DMSO (protein GSTA2, 24 h): -0.80 | Log2 50 µM T0070907/DMSO (protein GSTM3, 24 h): -0.71 | Log2 50 µM T0070907/DMSO (protein HIGD1A, 24 h): 0.70 | Log2 50 µM T0070907/DMSO (protein IREB2, 24 h): 0.96 | Log2 50 µM T0070907/DMSO (protein ITGB4, 24 h): 1.36 | Log2 50 µM T0070907/DMSO (protein LDHD, 24 h): -0.67 | Log2 50 µM T0070907/DMSO (protein LDLR, 24 h): 1.99 | Log2 50 µM T0070907/DMSO (protein LIPA, 24 h): -0.85 | Log2 50 µM T0070907/DMSO (protein MARCH5, 24 h): 1.21 | Log2 50 µM T0070907/DMSO (protein MGMT, 24 h): -0.69 | Log2 50 µM T0070907/DMSO (protein MYO15B, 24 h): -0.74 | Log2 50 µM T0070907/DMSO (protein NOP9, 24 h): 1.10 | Log2 50 µM T0070907/DMSO (protein OAS1, 24 h): 0.92 | Log2 50 µM T0070907/DMSO (protein OGDHL, 24 h): -1.02 | Log2 50 µM T0070907/DMSO (protein PANK4, 24 h): -0.81 | Log2 50 µM T0070907/DMSO (protein PHPT1, 24 h): -1.25 | Log2 50 µM T0070907/DMSO (protein PSIP1, 24 h): 0.60 | Log2 50 µM T0070907/DMSO (protein RAB5B, 24 h): 0.62 | Log2 50 µM T0070907/DMSO (protein RBP4, 24 h): -0.37 | Log2 50 µM T0070907/DMSO (protein RRS1, 24 h): 0.77 | Log2 50 µM T0070907/DMSO (protein SAMHD1, 24 h): -0.81 | Log2 50 µM T0070907/DMSO (protein SCAMP3, 24 h): 0.64 | Log2 50 µM T0070907/DMSO (protein SETDB1, 24 h): 0.63 | Log2 50 µM T0070907/DMSO (protein SLC26A3, 24 h): -1.02 | Log2 50 µM T0070907/DMSO (protein SLC39A14, 24 h): -0.69 | Log2 50 µM T0070907/DMSO (protein STK4, 24 h): -0.81 | Log2 50 µM T0070907/DMSO (protein SURF6, 24 h): 0.78 | Log2 50 µM T0070907/DMSO (protein TGOLN2, 24 h): 0.93 | Log2 50 µM T0070907/DMSO (protein TPD52L1, 24 h): -1.09 | Log2 50 µM T0070907/DMSO (protein TTR, 24 h): -1.25 | Log2 50 µM T0070907/DMSO (protein VPS52, 24 h): 0.77

— article PMC4992173, “Divergent synthesis and identification of the cellular targets of deoxyelephantopins” (Nature Communications, 2016)
